# Key:
# human AT1 receptor = target: T1, human AT1 receptor (Homo sapiens, UniProt P30556); experiment: AT1 receptor antagonistic activity: [125I]-angiotensin II binding assay on human AT1 receptor-expressing CHO-K1 cellular membrane fraction; settings: 22.5 pM [125I]-angiotensin II, 1 hr room temperature
# T1 construct: expressed in transfected cells; membrane fraction
# T1 sequence (P30556 1-359): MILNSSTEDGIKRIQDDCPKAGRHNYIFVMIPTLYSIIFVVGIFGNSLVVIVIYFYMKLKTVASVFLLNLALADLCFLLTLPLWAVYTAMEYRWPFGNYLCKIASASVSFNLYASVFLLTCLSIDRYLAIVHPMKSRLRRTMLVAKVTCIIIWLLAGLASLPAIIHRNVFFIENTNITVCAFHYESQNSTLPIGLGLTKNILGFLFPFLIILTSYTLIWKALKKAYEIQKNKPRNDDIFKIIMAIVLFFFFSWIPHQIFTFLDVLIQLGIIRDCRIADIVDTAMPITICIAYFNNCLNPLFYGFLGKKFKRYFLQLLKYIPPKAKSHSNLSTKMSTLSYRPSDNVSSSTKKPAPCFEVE
# Method in brief: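 Competition binding used radiolabelled angiotensin II on stably transfected CHO-K1 membrane fractions in Tris pH 7.4/MgCl2 buffer, optionally containing 0.3 mg/mL fatty acid-free BSA, 1 hr at room temperature. Filtration onto GF/C separated bound tracer, and nonspecific binding was measured with candesartan.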
# human PPARγ = target: T2, human PPARγ (Homo sapiens, UniProt P37231); experiment: PPARγ agonistic activity: luciferase reporter assay in PPARγ:RXRα:4ERPP/CHO-K1 cells; type: cell-based; settings: CHO-K1, test compound 10^−6 M; luciferase activity of control compound X (1 μM) = 100%, non-administration group = 0%
# T2 construct: expressed in transfected cells
# T2 sequence (P37231 1-477 isoform P37231-2): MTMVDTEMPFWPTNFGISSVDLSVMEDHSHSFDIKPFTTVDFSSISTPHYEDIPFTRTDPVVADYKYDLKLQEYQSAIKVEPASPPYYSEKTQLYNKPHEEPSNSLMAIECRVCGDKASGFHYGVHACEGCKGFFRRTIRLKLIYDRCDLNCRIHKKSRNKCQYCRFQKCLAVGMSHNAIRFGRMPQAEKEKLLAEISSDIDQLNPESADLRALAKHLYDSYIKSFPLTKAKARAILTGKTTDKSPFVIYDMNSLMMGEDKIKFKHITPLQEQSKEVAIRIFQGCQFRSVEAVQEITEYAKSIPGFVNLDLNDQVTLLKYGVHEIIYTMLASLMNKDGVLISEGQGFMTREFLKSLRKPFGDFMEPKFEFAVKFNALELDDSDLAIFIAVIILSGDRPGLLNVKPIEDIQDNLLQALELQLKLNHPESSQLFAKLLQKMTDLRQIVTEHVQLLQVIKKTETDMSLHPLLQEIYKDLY
# T2 sequence (P19793 1-462 partner): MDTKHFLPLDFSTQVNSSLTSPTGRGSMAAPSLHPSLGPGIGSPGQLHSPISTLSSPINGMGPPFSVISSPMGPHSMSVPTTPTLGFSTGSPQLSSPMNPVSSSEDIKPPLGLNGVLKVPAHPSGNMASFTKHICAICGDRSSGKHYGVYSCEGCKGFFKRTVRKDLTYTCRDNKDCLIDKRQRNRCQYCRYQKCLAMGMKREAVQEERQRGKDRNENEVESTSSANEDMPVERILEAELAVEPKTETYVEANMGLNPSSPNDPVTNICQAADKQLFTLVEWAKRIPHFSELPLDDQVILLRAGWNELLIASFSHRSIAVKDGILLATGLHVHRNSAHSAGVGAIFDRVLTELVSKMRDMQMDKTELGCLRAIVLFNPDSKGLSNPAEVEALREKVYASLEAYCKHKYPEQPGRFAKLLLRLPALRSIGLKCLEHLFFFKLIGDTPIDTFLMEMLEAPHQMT
# Method in brief: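 Activity is expressed relative to untreated cells (0%) and 1 μM reference compound X (100%), from luciferase luminescence. Reporter line: PPARγ:RXRα:4ERPP/CHO-K1, exposed to compound for one day at 37 °C in F12 medium containing 0.1% fatty-acid-free BSA.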
IC50 (human AT1 receptor),activation at 1 µM (human PPARγ),SMILES
3.2 nM,25%,"CCCc1c(Cc2ccc(-c3ccccc3-c3noc(=O)[nH]3)cc2)c(=O)n(C2CCC3(CC2)OC(=O)C(C)(C)O3)c2ncnn12 (centres unmarked) [Example 290, 4-(2,2-dimethyl-3-oxo-1,4-dioxaspiro[4.5]dec-8-yl)-6-{[2′-(5-oxo-4,5-dihydro-1,2,4-oxadiazol-3-yl)biphenyl-4-yl]methyl}-7-propyl[1,2,4]triazolo[1,5-a]pyrimidin-5(4H)-one]"
1.2 nM,19%,"CCCc1c(Cc2ccc(-c3ccccc3-c3noc(=O)[nH]3)cc2)c(=O)n(C2CCC(C(C)(C)O)CC2)c2ncnn12 (centres unmarked) [Example 376, 4-[4-(1-hydroxy-1-methylethyl)cyclohexyl]-6-{[2′-(5-oxo-4,5-dihydro-1,2,4-oxadiazol-3-yl)biphenyl-4-yl]methyl}-7-propyl[1,2,4]triazolo[1,5-a]pyrimidin-5(4H)-one]"
1.9 nM,23%,"CCCCc1c(Cc2ccc(-c3ccccc3-c3noc(=O)[nH]3)cc2)c(=O)n(C2CCOCC2)c2ncnn12 [Example 125, 7-butyl-6-{[2′-(5-oxo-4,5-dihydro-1,2,4-oxadiazol-3-yl)biphenyl-4-yl]methyl}-4-(tetrahydro-2H-pyran-4-yl)[1,2,4]triazolo[1,5-a]pyrimidin-5(4H)-one]"
2 nM,23%,"CCCc1c(Cc2ccc(-c3ccccc3-c3noc(=O)[nH]3)cc2)c(=O)n([C@H]2CC[C@](C)(OCC(C)(C)O)CC2)c2ncnn12 [Example 385, 4-[trans-4-(2-hydroxy-2-methylpropoxy)-4-methylcyclohexyl]-6-{[2′-(5-oxo-4,5-dihydro-1,2,4-oxadiazol-3-yl)biphenyl-4-yl]methyl}-7-propyl[1,2,4]triazolo[1,5-a]pyrimidin-5(4H)-one]"
3.1 nM,34%,"C=C1COC2(CCC(n3c(=O)c(Cc4ccc(-c5ccccc5-c5noc(=O)[nH]5)cc4)c(CCC)n4ncnc34)CC2)OC1 [Example 285, 4-(3-methylidene-1,5-dioxaspiro[5.5]undec-9-yl)-6-{[2′-(5-oxo-4,5-dihydro-1,2,4-oxadiazol-3-yl)biphenyl-4-yl]methyl}-7-propyl[1,2,4]triazolo[1,5-a]pyrimidin-5(4H)-one]"
2.2 nM,53%,"CCCc1c(Cc2ccc(-c3ccccc3-c3noc(=O)[nH]3)cc2)c(=O)n([C@H]2CC[C@H](Oc3ccon3)CC2)c2ncnn12 [Example 282, 4-[trans-4-(isoxazol-3-yloxy)cyclohexyl]-6-{[2′-(5-oxo-4,5-dihydro-1,2,4-oxadiazol-3-yl)biphenyl-4-yl]methyl}-7-propyl[1,2,4]triazolo[1,5-a]pyrimidin-5(4H)-one]"
2.2 nM,16%,"CCCc1c(Cc2ccc(-c3ccccc3-c3noc(=O)[nH]3)cc2)c(=O)n(C2CCOCC2)c2ncnn12 [Example 109, 6-{[2′-(5-oxo-4,5-dihydro-1,2,4-oxadiazol-3-yl)biphenyl-4-yl]methyl}-7-propyl-4-(tetrahydro-2H-pyran-4-yl)[1,2,4]triazolo[1,5-a]pyrimidin-5(4H)-one]"
1.8 nM,42%,"CCCc1c(Cc2ccc(-c3ccccc3-c3noc(=O)[nH]3)cc2)c(=O)n([C@H]2CC[C@@H](Oc3ccon3)CC2)c2ncnn12 [Example 281, 4-[cis-4-(isoxazol-3-yloxy)cyclohexyl]-6-{[2′-(5-oxo-4,5-dihydro-1,2,4-oxadiazol-3-yl)biphenyl-4-yl]methyl}-7-propyl[1,2,4]triazolo[1,5-a]pyrimidin-5(4H)-one]"

# Second part, the compound before the results:
SMILES,IC50 (human AT1 receptor),activation at 1 µM (human PPARγ)
"CCCc1c(Cc2ccc(-c3ccccc3-c3noc(=O)[nH]3)cc2)c(=O)n(C2CCC(C)OC2)c2nc(C)nn12 (centres unmarked) [Example 144, 2-methyl-4-(6-methyltetrahydro-2H-pyran-3-yl)-6-{[2′-(5-oxo-4,5-dihydro-1,2,4-oxadiazol-3-yl)biphenyl-4-yl]methyl}-7-propyl[1,2,4]triazolo[1,5-a]pyrimidin-5(4H)-one]",1.4 nM,20%
"CCCc1c(Cc2ccc(-c3ccccc3-c3noc(=O)[nH]3)cc2)c(=O)n([C@H]2CC[C@H](OCC(O)(CF)CF)CC2)c2ncnn12 [Example 339, 4-{trans-4-[3-fluoro-2-(fluoromethyl)-2-hydroxypropoxy]cyclohexyl}-6-{[2′-(5-oxo-4,5-dihydro-1,2,4-oxadiazol-3-yl)biphenyl-4-yl]methyl}-7-propyl[1,2,4]triazolo[1,5-a]pyrimidin-5(4H)-one]",1.4 nM,27%
"CCCc1c(Cc2ccc(-c3ccccc3-c3noc(=O)[nH]3)cc2)c(=O)n(CC2(C)CC2)c2nc(C)nn12 [Example 69, 2-methyl-4-[(1-methylcyclopropyl)methyl]-6-{[2′-(5-oxo-4,5-dihydro-1,2,4-oxadiazol-3-yl)biphenyl-4-yl]methyl}-7-propyl[1,2,4]triazolo[1,5-a]pyrimidin-5(4H)-one]",1.4 nM,27%
"CCCc1c(Cc2ccc(-c3ccccc3-c3noc(=O)[nH]3)cc2)c(=O)n([C@H]2CC[C@H](OCC3(CO)CCC3)CC2)c2ncnn12 [Example 228, 4-(trans-4-{[1-(hydroxymethyl)cyclobutyl]methoxy}cyclohexyl)-6-{[2′-(5-oxo-4,5-dihydro-1,2,4-oxadiazol-3-yl)biphenyl-4-yl]methyl}-7-propyl[1,2,4]triazolo[1,5-a]pyrimidin-5(4H)-one]",1.5 nM,27%
"C=CC(O)CO[C@H]1CC[C@H](n2c(=O)c(Cc3ccc(-c4ccccc4-c4noc(=O)[nH]4)cc3)c(CCC)n3ncnc32)CC1 (stereo partly drawn) [Example 331, 4-{trans-4-[(2-hydroxybut-3-en-1-yl)oxy]cyclohexyl}-6-{[2′-(5-oxo-4,5-dihydro-1,2,4-oxadiazol-3-yl)biphenyl-4-yl]methyl}-7-propyl[1,2,4]triazolo[1,5-a]pyrimidin-5(4H)-one]",2 nM,33%
"CCCc1c(Cc2ccc(-c3ccccc3-c3noc(=O)[nH]3)cc2)c(=O)n([C@H]2CC[C@H](OCC(O)C(F)(F)F)CC2)c2ccnn12 (relative stereo) [Example 428, 6-{[2′-(5-oxo-4,5-dihydro-1,2,4-oxadiazol-3-yl)biphenyl-4-yl]methyl}-7-propyl-4-[trans-4-(3,3,3-trifluoro-2-hydroxypropoxy)cyclohexyl]pyrazolo[1,5-a]pyrimidin-5(4H)-one]",1.9 nM,27%
"CCCc1c(Cc2ccc(-c3ccccc3-c3noc(=O)[nH]3)cc2)c(=O)n([C@H]2CC[C@H](OCC3(O)CC3)CC2)c2ccnn12 [Example 427, 4-{trans-4-[(1-hydroxycyclopropyl)methoxy]cyclohexyl}-6-{[2′-(5-oxo-4,5-dihydro-1,2,4-oxadiazol-3-yl)biphenyl-4-yl]methyl}-7-propylpyrazolo[1,5-a]pyrimidin-5(4H)-one]",1.9 nM,18%
"CCCc1c(Cc2ccc(-c3ccccc3-c3noc(=O)[nH]3)cc2)c(=O)n([C@H]2CC[C@H](OCCCO)CC2)c2ncnn12 [Example 186, 4-[trans-4-(3-hydroxypropoxy)cyclohexyl]-6-{[2′-(5-oxo-4,5-dihydro-1,2,4-oxadiazol-3-yl)biphenyl-4-yl]methyl}-7-propyl[1,2,4]triazolo[1,5-a]pyrimidin-5(4H)-one]",2.1 nM,24%
